Consider one substance from US20260124293A1 (priority 2022, published 2026).

The subject of data set [1] is Syrian hamsters. The following applies: hamster, in vivo.
For data set [2], the system named is K18-hACE2 mice. The following applies: mouse, in vivo.

For “BetaCoV/Wuhan/IVDC-HB-01/2019 [SARS-CoV-2 WT]”, in data set [1], the “animals that succumbed to the disease or reached termination criteria” value came out at 75% and the mean bodyweight is 84%. Further, in data set [2], the body weight loss entry is listed as “associated with weight loss” and the clinical signs entry is recorded as “only WT exhibit clinical signs”.
